How the values were obtained:
Conditions in all cases: 72 h
Caco-2 [1] = test: cell viability relative to DMSO; higher = less toxic
Calu-3 [2] = test: as above
HepG2 [3] = test: as above
U2OS [4] = test: as above
Vero E6 [5] = test: as above
Caco-2 [6] = test: relative viability EC50 (midpoint between 100% and the lowest measured viability); higher = less toxic
U2OS [7] = test: as above
Vero E6 [8] = test: as above
Caco-2 [9] = test: drug sensitivity score (DSS) for viability; higher = more toxic; extreme values may be limits of the assay
Calu-3 [10] = test: as above
HepG2 [11] = test: as above
U2OS [12] = test: as above
Vero E6 [13] = test: as above
HepG2 [14] = test: relative viability EC50 (midpoint between 100% and the lowest measured viability); higher = less toxic

| SMILES | cell viability (Caco-2 [1]; 1 nM) [%] | cell viability (Caco-2 [1]; 10 nM) [%] | cell viability (Caco-2 [1]; 100 nM) [%] | cell viability (Caco-2 [1]; 1000 nM) [%] | cell viability (Caco-2 [1]; 10000 nM) [%] | cell viability (Calu-3 [2]; 1 nM) [%] | cell viability (Calu-3 [2]; 10 nM) [%] | cell viability (Calu-3 [2]; 100 nM) [%] | cell viability (Calu-3 [2]; 1000 nM) [%] | cell viability (Calu-3 [2]; 10000 nM) [%] | cell viability (HepG2 [3]; 1 nM) [%] | cell viability (HepG2 [3]; 10 nM) [%] | cell viability (HepG2 [3]; 100 nM) [%] | cell viability (HepG2 [3]; 1000 nM) [%] | cell viability (HepG2 [3]; 10000 nM) [%] | cell viability (U2OS [4]; 1 nM) [%] | cell viability (U2OS [4]; 10 nM) [%] | cell viability (U2OS [4]; 100 nM) [%] | cell viability (U2OS [4]; 1000 nM) [%] | cell viability (U2OS [4]; 10000 nM) [%] | cell viability (Vero E6 [5]; 1 nM) [%] | cell viability (Vero E6 [5]; 10 nM) [%] | cell viability (Vero E6 [5]; 100 nM) [%] | cell viability (Vero E6 [5]; 1000 nM) [%] | cell viability (Vero E6 [5]; 10000 nM) [%] | relative viability EC50 (Caco-2 [6]) [µM] | relative viability EC50 (U2OS [7]) [µM] | relative viability EC50 (Vero E6 [8]) [µM] | drug sensitivity score (Caco-2 [9]) | drug sensitivity score (Calu-3 [10]) | drug sensitivity score (HepG2 [11]) | drug sensitivity score (U2OS [12]) | drug sensitivity score (Vero E6 [13]) | relative viability EC50 (HepG2 [14]) [µM] |
| --- | --- | --- | --- | --- | --- | --- | --- | --- | --- | --- | --- | --- | --- | --- | --- | --- | --- | --- | --- | --- | --- | --- | --- | --- | --- | --- | --- | --- | --- | --- | --- | --- | --- | --- |
| CCc1cccc(CC)c1NC(=O)N1Cc2[nH]nc(NC(=O)c3ccc(N4CCN(C)CC4)cc3)c2C1 | 101 | 104 | 98.7 | 91.8 | 76.8 | 99.1 | 93.4 | 87.6 | 95 | 63 | 102 | 97.5 | 93.9 | 70.5 | 58.3 | 102 | 97.8 | 95.4 | 93.1 | 40 | 96.9 | 97.5 | 96.9 | 95.9 | 89.3 | > 10 | 2.22 | > 10 | 1.7 | 2.6 | 5.9 | 4.4 | 0 | – |
| COc1ccc2[nH]c(C(=O)c3ccccc3)cc2c1 | 95 | 108 | 62.1 | 55.4 | 43.2 | 107 | 104 | 89.3 | 67.8 | 56.2 | 99.2 | 92.7 | 94.8 | 36.4 | 29.6 | 96.5 | 99.9 | 91.5 | 37.3 | 23.3 | 95.1 | 97.9 | 79.6 | 30.5 | 26.6 | 0.0765 | 0.383 | 0.178 | 14.9 | 6.8 | 12.4 | 12.7 | 15.3 | 0.338 |
| COc1ccc2c(c1)C=C1Cn3c-2c(C2CCCCC2)c2ccc(cc23)C(=O)NS(=O)(=O)N(C)CCOCCN(C)C1=O | 93.7 | 91.1 | 99 | 102 | 94.2 | – | – | – | – | – | 97.3 | 93.5 | 106 | 97 | 105 | 102 | 100 | 95.8 | 96.5 | 95.3 | 101 | 97.3 | 96.3 | 102 | 95.3 | > 10 | > 10 | > 10 | 0 | – | 0 | 0 | 0 | > 10 |
| Cc1cccc(NC(=O)N[C@@H]2N=C(c3ccccc3)c3ccccc3N(C)C2=O)c1 | 105 | 106 | 100 | 110 | 97.2 | – | – | – | – | – | 111 | 109 | 110 | 106 | 92.5 | – | – | – | – | – | 111 | 102 | 109 | 101 | 93.6 | > 10 | – | > 10 | 0 | – | 0 | – | 0 | > 10 |
| O=C1NC(=O)C(=Cc2ccc(-c3ccc(F)cc3)o2)S1 (stereo in doubt) | 99.2 | 97.9 | 104 | 95.3 | 90.4 | – | – | – | – | – | 104 | 111 | 99.4 | 94 | 100 | 95.3 | 98.5 | 99.9 | 97.5 | 98.1 | 97.7 | 102 | 95.8 | 91.5 | 89.1 | > 10 | > 10 | > 10 | 0 | – | 0 | 0 | 0.1 | > 10 |
| Cl/C=C\C[N+]12CN3CN(CN(C3)C1)C2 [1-((Z)-3-chloroallyl)-1,3,5,7-tetraazaadamantan-1-ium] | 96.3 | 97.9 | 91.5 | 97.4 | 95.8 | – | – | – | – | – | 102 | 104 | 109 | 102 | 97.7 | 94.5 | 99.8 | 94.7 | 102 | 97.5 | 99.5 | 99 | 99.4 | 95.5 | 104 | > 10 | > 10 | > 10 | 0 | – | 0 | 0 | 0 | > 10 |
| CC(C)(C)n1nc(-c2cccc3ccccc23)c2c(N)ncnc21 [1-naphthyl-PP1] | 104 | 93.1 | 98.6 | 101 | 86.1 | 91.6 | 104 | 98.4 | 100 | 73 | 115 | 115 | 95.6 | 105 | 82.8 | 100 | 96.4 | 109 | 94.4 | 75.6 | 107 | 99 | 103 | 110 | 78.6 | > 10 | > 10 | > 10 | 0.1 | 1.1 | 0.2 | 1.7 | 0.4 | > 10 |
